The experiment concerns skin. The experiment in a line: Test Example 1: transepidermal water loss (TEWL) of skin pretreated with sodium lauryl sulfate, Tewameter. The class given is in vivo. To be noted: conclusion drawn from Table 3. How it is done:
Vesicle dispersion liquid 1, Vesicle dispersion liquid 2, Comparative Example 4, Comparative Example 5, and Comparative Example 6 were each used as a sample. The skin was previously applied and blocked with 1% sodium lauryl sulfate aqueous solution for 24 hours to enhance transepidermal water loss (TEWL), and was applied and blocked with the sample for 6 hours, and 30 minutes after removing a bandage, TEWL was determined using Tewameter (manufactured by Integral Corporation). It should be noted that water was applied as a control. […] This is inferably because the dermis-reaching property of Palmaria extract 1, which is an active ingredient, has been enhanced owing to the vesicle.

The text below walks through data of patent publication US8865208B2, “Vesicle useful for external preparation for skin, and external preparation for skin comprising the vesicle” (Pola Chemical Industries Inc., priority 2007, dated 2014).

`CCCCCCCCCCCC(=O)N[C@@H](CCC(=O)NCCCC[C@H](NC(=O)CC[C@H](NC(=O)CCCCCCCCCCC)C(=O)O)C(=O)O)C(=O)O` [Pellicer L-30, α,ε-bis (γ-N-lauroylglutamyl)lysine]: the “TEWL-suppressing effect (in words)” value is on record as “had a function of suppressing TEWL”.
